Experimental data reported in patent US7842671B1, “Peptidomimetic inhibitors of STAT activity and uses thereof” (University of South Florida, priority 2003, dated 2010).
Square brackets hold non-standard residues; d marks the D form. Ends that are not written are not given here. pY = N[C@@H](Cc1ccc(OP(=O)(O)O)cc1)C(=O)O

Legend:
Stat3 [1] = target: T1, Stat3 (Mus musculus, UniProt P42227); design: nuclear extracts (prepared from epidermal growth factor (EGF)-stimulated fibroblasts); endogenous in cells; host or cells: NIH3T3 fibroblasts stimulated with EGF; details: cited from earlier work
T1 sequence (P42227 whole entry): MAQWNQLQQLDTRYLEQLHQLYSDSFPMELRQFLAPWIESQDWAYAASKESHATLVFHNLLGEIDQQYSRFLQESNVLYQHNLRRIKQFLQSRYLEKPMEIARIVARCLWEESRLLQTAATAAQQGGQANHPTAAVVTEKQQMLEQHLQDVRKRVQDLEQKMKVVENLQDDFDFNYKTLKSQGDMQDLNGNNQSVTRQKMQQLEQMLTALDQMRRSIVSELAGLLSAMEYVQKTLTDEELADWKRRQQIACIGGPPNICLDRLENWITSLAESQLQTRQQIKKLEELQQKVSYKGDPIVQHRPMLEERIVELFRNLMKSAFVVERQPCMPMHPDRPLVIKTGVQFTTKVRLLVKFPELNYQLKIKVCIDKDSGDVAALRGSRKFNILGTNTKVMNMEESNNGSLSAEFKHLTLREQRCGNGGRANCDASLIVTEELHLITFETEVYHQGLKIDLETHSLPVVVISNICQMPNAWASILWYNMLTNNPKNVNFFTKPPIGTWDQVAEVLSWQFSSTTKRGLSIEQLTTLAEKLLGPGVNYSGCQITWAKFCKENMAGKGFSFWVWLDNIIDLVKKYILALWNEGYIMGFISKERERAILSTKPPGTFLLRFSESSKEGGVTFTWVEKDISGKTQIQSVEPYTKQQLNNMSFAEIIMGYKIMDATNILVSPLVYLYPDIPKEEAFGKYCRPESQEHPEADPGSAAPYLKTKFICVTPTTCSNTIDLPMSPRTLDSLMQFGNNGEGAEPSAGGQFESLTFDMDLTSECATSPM

[2] = tested on: Stat1:Stat1 and Stat3:Stat3 dimers; assay: Dissociation-reassociation analysis of pooled Sf-9 lysates by EMSA; assay type: biochemical; details: 30 min pre-treatment, 30-300 μM PY*LKTK or 3-1000 μM ISS 610, hSIE probe
Description: Cytosolic extract preparation and luciferase assays. Cytosolic extract preparation from fibroblasts and luciferase assays were previously described (Turkson, J. et al. (1998); Turkson, J. et al. (1999)). Briefly, after two washes with PBS and equilibration for 5 min with 0.5 ml PBS-0.5 mM EDTA, cells were scraped off the dishes and the cell pellet was obtained by centrifugation (4,500×g, 2 min, 4° C.). Cells were resuspended in 0.4 ml of low-salt HEPES buffer (10 mM HEPES (pH 7.8), 10 mM KCl, 0.1 mM EGTA, 0.1 mM EDTA, 1 mM phenylmethylsulfonyl fluoride, and 1 mM dithiothreitol) for 15 min, lysed by the addition of 20 μl of 10% Nonidet P-40 (NP-40), and centrifuged (10,000×g, 30 s, 4° C.) to obtain the cytosolic supernatant, which was used for luciferase assays (Promega) measured with a luminometer. Cytosolic lysates containing activated Stat3 or Stat1 that were used for dissociation-reassociation analysis were prepared from baculovirus-infected Sf-9 insect cells as previously described (Turkson, J. et al. (2001); Zhang, Y. et al. (2000)). Briefly, cultured dishes of Sf-9 cells were washed twice with ice-cold 1×PBS and then PBS containing 1 mM sodium orthovanadate.

Stat3 [3] = target: T1, Stat3; design: nuclear extracts prepared from v-Src-transformed NIH3T3/v-Src; endogenous in cells; host or cells: NIH3T3/v-Src; details: Turkson J. et al. (2001); cited from earlier work
NIH3T3 = assay: Apo-BrdU labeling and flow cytometry for apoptotic cells; assay type: cell-based, mouse; details: NIH3T3, 1 mM, 48 h, flow cytometry
Description: (§1) Cell proliferation, soft-agar growth and Apo-BrdU labeling studies. Proliferating fibroblasts and human tumor cells were counted by phase-contrast microscopy for viable cells (using tyrpan blue exclusion). Colony formation assays in six-well dishes and quantification of colonies by iodonitrotetrazolium violet have been previously described (Turkson, J. et al. (1999)). Treatment of cells with inhibitors was initiated 1 day after seeding cells by adding 75 μl of medium with or without inhibitor, and repeated every two to three days. Apoptosis was measured by Apo-BrdU labeling and following the supplier's (PharMingen; San Diego, Calif.) instructions.
(§2) Because one of the functions of Stat3 is to protect transformed or tumor cells from apoptosis (Catlett-Falcone, R. et al. (1999b); Epling-Burnette, P. K. et al. (2001); Grandis, J. R. et al. (2000); Bowman, T. et al. (2000b); Bromberg, J. F. et al. (1999)), the ability of peptidomimetics of the invention (and PY*LKTK-MTS for comparison) (SEQ ID NO. 1) to induce apoptosis in Stat3-dependent transformed fibroblasts was evaluated. Viral Src-transformed NIH3T3/v-Src fibroblasts were treated with or without compounds for 48 h. Treated cells were then labeled with Apo-BrdU (PharMingen; San Diego, Calif.) for detection of DNA breaks.

NIH3T3/v-Src [4] = assay: as above; assay type: cell-based, mouse; details: 48 h
Description: as §1, §2

MDA-MB-231 = assay type: cell-based, human; details: 1 mM, MDA-MB-231, four days
Description: as §1
(§3) Stat3 has an essential role in cell proliferation, and constitutively-active Stat3 is required for growth of transformed and tumor cells that harbor aberrant Stat3 signaling. Studies were performed to determine the effects of the peptidomimetic-mediated inhibition of Stat3 on cell proliferation using trypan blue exclusion for viable cell counts.

MDA-MB-435 = assay type: cell-based, human; details: 1 mM, MDA-MB-435, four days
Description: as §1, §3

NIH3T3/v-Src [5] = assay type: cell-based, mouse; details: 1 mM, four days
Description: as §1, §3

| Substance | disruption of Stat3:Stat3 dimer formation and Stat3 DNA-binding activity, as reported earlier (Stat3 [1]) | effect on STAT dimers in mixed Stat1:Stat1 and Stat3:Stat3 lysates [2] | constitutive Stat3 activation in Src-transformed fibroblasts (Stat3 [3]) | percent of apoptotic cells (NIH3T3) [%] | percent of apoptotic cells (NIH3T3/v-Src [4]; NIH3T3/v-Src, 1 mM, Apo-BrdU, flow cytometry) [%] | incorporated BrdUTP compared to controls (in words) (NIH3T3/v-Src [4]; Src-transformed fibroblasts) | cell proliferation (MDA-MB-231) | cell proliferation (MDA-MB-435) | cell proliferation (NIH3T3/v-Src [5]) |
| --- | --- | --- | --- | --- | --- | --- | --- | --- | --- |
| PY*LKTK (P[pY]LKTK) [reference compound] | disrupt Stat3:Stat3 dimer formation | appearance of an additional intermediate band representing Stat1:Stat3 heterodimers |  |  |  |  |  |  |  |
| PY*LKTK-AAVLLPVLLAAP (P[pY]LKTKAAVLLPVLLAAP) [PY*LKTK-MTS] |  |  | inhibits constitutive Stat3 activation | 3.7 | 27.6 | dramatic increases in incorporated BrdUTP | significantly suppresses proliferation | significantly suppresses proliferation | significantly suppresses proliferation |
